Publication PMC9800739, “Epigenetic drugs in somatostatin type 2 receptor radionuclide theranostics and radiation transcriptomics in mouse pheochromocytoma models” (Theranostics, 2023)
Where two headings read alike, the source gives them in different places.

How the values were obtained:
MTT tumors = details: for increase of average SUVmean of tumors vs control cohort: MTT tumors, VPA 250 mg/kg, DAC 1 mg/kg, single or combination, i.p. twice at 72 h interval, DAC P < 0.05, combination P < 0.01; for SUVmean tumor / SUVmax ratio tumor / muscle / SUVmax tumor / SUVmean ratio tumor / muscle: MTT; for percentage of MTT responders (SUV): n = 7 per cohort, threshold control mean + 2×TE
Experimental: All animal experiments were carried out according to the guidelines of the German Regulations for Animal Welfare and have been approved by the local Ethical Committee for Animal Experiments. A number of 4×10^6 MPC or MTT cells were re-suspended in 40 µL of Dulbecco's phosphate-buffered saline and injected subcutaneously into the shoulder of 10-15 week-old female nude mice (Rj:NMRI-Foxn1^nu/nu, Janvier Labs, Le Genest-Saint-Isle, France). Prior to imaging procedures, general anesthesia was induced and maintained with inhalation of 10% (v/v) desflurane in 30/10% (v/v) oxygen/air. During anesthesia, animals were continuously warmed at 37°C. Tumor growth was monitored three times per week using caliper measurements. Tumor volume was calculated assuming a tri-axial ellipsoid with the axes a, b, and c using the formula V = π/6×abc. Animals were sacrificed using CO2 inhalation and cervical dislocation.
Preparation of epigenetic drugs is described in Supplemental Information 1.1. Animals received VPA (1.7×10^‒3 mol/kg ≈ 250 mg/kg), DAC ([…] ≈ 1 mg/kg), or a combination of both, in Dulbecco's phosphate buffered saline (200 µL/30 g body weight), delivered as two consecutive intraperitoneal injections in a 72 h-interval. Applied doses were within the epigenetically effective dose range in mice, as reported elsewhere, [41]-[43]. The estimated human equivalent doses corresponded to 20‒30% of the clinically applied tumor-suppressive doses in patients, [45]. Animals in control groups received Dulbecco's phosphate buffered saline only. Multiple independent experiments were performed, always including animals of all treatment groups (Table 1).
Small animal positron emission tomography (PET) was performed using the nanoPET/CT scanner (Mediso Medical Imaging Systems, Budapest, Hungary). […] Recording, binning, framing, and image reconstruction were performed as reported previously. Dynamic imaging was performed for 60 min, static imaging between 40‒60 min after radiotracer injection. With each PET scan, a corresponding CT image was recorded and used for anatomical referencing and attenuation correction. […] Standardized uptake values (SUV) were determined and reported as SUVmean (VOI-averaged) and SUVmax (VOI-maximum). Details on quantitative PET image analysis are provided in Supplemental Information 1.4.
106 (VOIs) were created (40‒60 min frames) applying fixed thresholds for delineation of tumor
107 (30%), muscle (0%), kidneys (25%), and liver (35%). […]

[1] = tested on: MPC and MTT allograft mice; assay: Biodistribution / retention of [64Cu]Cu-DOTA-TATE; type: in vivo, mouse; details: DAC-treated animals; no relationship with SUV changes in tumors
Experimental: Radiotracer was injected as described for PET imaging. Mice were sacrificed 60 min after radiotracer injection, organs were excised and weighted, and activity in tissue samples was measured using the gamma counter Wizard (PerkinElmer, Waltham, MA, USA). Standardized uptake values were determined.
107 (30%), muscle (0%), kidneys (25%), and liver (35%).
116 attenuation. Images were post-processed and analyzed using ROVER (ABX). Three-
118 kidneys (15%), and liver (25%).
119 1.6 Sstr2 promoter methylation analysis
122 Bisulfite Kit (Qiagen, Hilden, Germany). Bisulfite-converted DNA was amplified using a
Amplicon size (195bp) was confirmed
125 Switzerland). Electropherograms were compared to PCR products amplified from bisulfite-
127 an unmethylated 900bp-DNA fragment. The latter was generated by amplification of genomic
129 of primers are provided in (Table S 2).

SSTR2 [2] = biological target: T1, SSTR2 (Mus musculus, UniProt P30875); assay: Immunoblotting of SSTR2 in cells after epigenetic treatment; type: cell-based
T1 construct: endogenous in cells; host or cells: MPC and MTT mouse pheochromocytoma cells (cell homogenates), untreated or treated with VPA + DAC
T1 sequence (P30875 whole entry): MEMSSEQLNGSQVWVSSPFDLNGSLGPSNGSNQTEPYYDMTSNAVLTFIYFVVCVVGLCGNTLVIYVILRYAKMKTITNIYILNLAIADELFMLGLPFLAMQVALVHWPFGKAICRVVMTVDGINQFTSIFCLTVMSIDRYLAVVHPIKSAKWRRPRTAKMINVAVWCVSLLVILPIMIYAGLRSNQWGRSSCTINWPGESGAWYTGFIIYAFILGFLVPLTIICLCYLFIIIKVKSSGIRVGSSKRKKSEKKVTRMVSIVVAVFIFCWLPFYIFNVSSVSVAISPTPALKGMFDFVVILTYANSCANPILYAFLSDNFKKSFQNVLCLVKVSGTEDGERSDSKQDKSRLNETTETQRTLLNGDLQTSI
Experimental: Cells were seeded into collagen-coated microplates or collagen-coated flasks 24 h before epigenetic treatment (ET) start and treated twice (24 h interval) with VPA and DAC, as single and combination doses, respectively. Treatment effects were investigated two to six days (d) after final ET. Preparation of epigenetic drugs is reported in Supplemental Information 1.1.
Cells seeded into collagen-coated flasks (2.5×10^4/cm^2) were harvested three days after treatment start by incubation with Dulbecco's phosphate-buffered saline containing 2 mmol/L EDTA at 4 °C. Cell pellets were frozen and stored at -70°C. Frozen tumor tissue obtained from allograft mice was cut into 4 × 4 mm pieces.
Protein extraction from cells and tissues, gel electrophoresis, and immunoblotting was performed as described previously with some modifications. In brief, tissue homogenization was performed using the gentleMACS™ dissociator (Miltenyi Biotech, Bergisch Gladbach, Germany). Immunodetection of proteins was performed using the recombinant primary antibodies anti-SSTR2 [UMB1] (Abcam, Cambridge, UK), anti-CHGA [C-20] (Santa Cruz Biotechnology, Heidelberg, Germany), and anti-ACTB [A5316] (Sigma-Aldrich). Densitometric analysis of protein bands was performed using ImageQuant TL (GE Healthcare, Chicago, IL, USA).

BON‑1 xenografts = tested on: BON‑1 xenografts; set-up: method as in PMID 27363833; details: after treatment with DAC; cited from earlier work
[3] = intraperitoneal doses applied; cited from earlier work
Excerpt: The estimated human equivalent doses corresponded to 20‒30% of the clinically applied tumor-suppressive doses in patients, [45]. Lower doses were used, since we focused on the epigenetic modulation effects rather than the cytotoxic effects of VPA and DAC.

SSTR2 [4] = tested on: SSTR2; set-up: method as in PMID 26211366; details: neuroendocrine tumor models; cited from earlier work
[5] = [64Cu]Cu-DOTA-TATE, 40‒60 min p.i., day 1 after final ET, control or VPA 250 mg/kg, DAC 1 mg/kg days −3 and 0, mean ± SEM, DAC P < 0.05, VPA+DAC P < 0.001
[6] = as SUVmean, mean ± SEM, DAC P < 0.05
[7] = as SUVmean, mean ± SEM, VPA+DAC P < 0.01

Nc1ncn([C@H]2C[C@H](O)[C@@H](CO)O2)c(=O)n1 [DAC, 5-Aza-2'-deoxycytidine]
increase of average SUVmean of tumors vs control cohort (MTT tumors): 1.7 fold
SUVmean tumor (MTT tumors; [5]): 0.88 ± 0.13
SUVmax ratio tumor / muscle (MTT tumors; animal 1, 40‒60 min p.i.): 4.01
SUVmax tumor (MTT tumors; animal 1, 40‒60 min p.i.): 0.83
SUVmean ratio tumor / muscle (MTT tumors; animal 1, 40‒60 min p.i.): 4.91
SUVmean tumor (MTT tumors; animal 1, 40‒60 min p.i.): 0.38
SUVmax ratio tumor / muscle (MTT tumors; animal 2, 40‒60 min p.i.): 6.62
SUVmax tumor (MTT tumors; animal 2, 40‒60 min p.i.): 1.52
SUVmean ratio tumor / muscle (MTT tumors; animal 2, 40‒60 min p.i.): 7.82
SUVmean tumor (MTT tumors; animal 2, 40‒60 min p.i.): 0.65
SUVmax ratio tumor / muscle (MTT tumors; animal 3, 40‒60 min p.i.): 5.31
SUVmax tumor (MTT tumors; animal 3, 40‒60 min p.i.): 1.66
SUVmean ratio tumor / muscle (MTT tumors; animal 3, 40‒60 min p.i.): 8.27
SUVmean tumor (MTT tumors; animal 3, 40‒60 min p.i.): 0.77
SUVmax ratio tumor / muscle (MTT tumors; animal 4, 40‒60 min p.i.): 11.0
SUVmax tumor (MTT tumors; animal 4, 40‒60 min p.i.): 2.00
SUVmean ratio tumor / muscle (MTT tumors; animal 4, 40‒60 min p.i.): 12.6
SUVmean tumor (MTT tumors; animal 4, 40‒60 min p.i.): 0.80
SUVmax ratio tumor / muscle (MTT tumors; animal 5, 40‒60 min p.i.): 7.68
SUVmax tumor (MTT tumors; animal 5, 40‒60 min p.i.): 1.88
SUVmean ratio tumor / muscle (MTT tumors; animal 5, 40‒60 min p.i.): 11.5
SUVmean tumor (MTT tumors; animal 5, 40‒60 min p.i.): 0.93
SUVmax ratio tumor / muscle (MTT tumors; animal 6, 40‒60 min p.i.): 14.7
SUVmax tumor (MTT tumors; animal 6, 40‒60 min p.i.): 2.71
SUVmean ratio tumor / muscle (MTT tumors; animal 6, 40‒60 min p.i.): 17.9
SUVmean tumor (MTT tumors; animal 6, 40‒60 min p.i.): 1.24
SUVmax ratio tumor / muscle (MTT tumors; animal 7, 40‒60 min p.i.): 18.9
SUVmax tumor (MTT tumors; animal 7, 40‒60 min p.i.): 2.72
SUVmean ratio tumor / muscle (MTT tumors; animal 7, 40‒60 min p.i.): 21.3
SUVmean tumor (MTT tumors; animal 7, 40‒60 min p.i.): 1.37
SUVmax ratio tumor / muscle (MTT tumors; as SUVmean, mean ± SEM): 9.74 ± 2.05
SUVmean ratio tumor / muscle (MTT tumors; [6]): 12.1 ± 2.2
SUVmax tumor (MTT tumors; [7]): 1.90 ± 0.25
percentage of MTT responders (SUV) (MTT tumors): 57%
activity retention in the liver, effect [1]: significantly higher in DAC-treated animals
induction of SSTR2 protein levels and radiotracer uptake, comparison (SSTR2 [2]; MPC and MTT models): more effectively compared to VPA
SSTR2 up-regulation compared to controls (SSTR2/ACTB) (SSTR2 [2]; MPC cells, DAC 10^-6 mol/L, final ET + 2 d): 5.3 fold
increase in [68Ga]Ga-DOTA-TATE uptake (BON‑1 xenografts): approximately 2 fold

CCCC(CCC)C(=O)O [VPA, valproic acid]
increase of average SUVmean of tumors vs control cohort (MTT tumors): 1.4 fold
SUVmean tumor (MTT tumors; [5]): 0.73 ± 0.08
SUVmax ratio tumor / muscle (MTT tumors; animal 1, 40‒60 min p.i.): 3.3
SUVmax tumor (MTT tumors; animal 1, 40‒60 min p.i.): 0.69
SUVmean ratio tumor / muscle (MTT tumors; animal 1, 40‒60 min p.i.): 3.20
SUVmean tumor (MTT tumors; animal 1, 40‒60 min p.i.): 0.34
SUVmax ratio tumor / muscle (MTT tumors; animal 2, 40‒60 min p.i.): 4.72
SUVmax tumor (MTT tumors; animal 2, 40‒60 min p.i.): 1.41
SUVmean ratio tumor / muscle (MTT tumors; animal 2, 40‒60 min p.i.): 10.52
SUVmean tumor (MTT tumors; animal 2, 40‒60 min p.i.): 0.70
SUVmax ratio tumor / muscle (MTT tumors; animal 3, 40‒60 min p.i.): 8.25
SUVmax tumor (MTT tumors; animal 3, 40‒60 min p.i.): 1.61
SUVmean ratio tumor / muscle (MTT tumors; animal 3, 40‒60 min p.i.): 7.63
SUVmean tumor (MTT tumors; animal 3, 40‒60 min p.i.): 0.71
SUVmax ratio tumor / muscle (MTT tumors; animal 4, 40‒60 min p.i.): 10.8
SUVmax tumor (MTT tumors; animal 4, 40‒60 min p.i.): 1.60
SUVmean ratio tumor / muscle (MTT tumors; animal 4, 40‒60 min p.i.): 11.4
SUVmean tumor (MTT tumors; animal 4, 40‒60 min p.i.): 0.73
SUVmax ratio tumor / muscle (MTT tumors; animal 5, 40‒60 min p.i.): 5.31
SUVmax tumor (MTT tumors; animal 5, 40‒60 min p.i.): 1.62
SUVmean ratio tumor / muscle (MTT tumors; animal 5, 40‒60 min p.i.): 7.80
SUVmean tumor (MTT tumors; animal 5, 40‒60 min p.i.): 0.74
SUVmax ratio tumor / muscle (MTT tumors; animal 6, 40‒60 min p.i.): 5.70
SUVmax tumor (MTT tumors; animal 6, 40‒60 min p.i.): 1.73
SUVmean ratio tumor / muscle (MTT tumors; animal 6, 40‒60 min p.i.): 9.73
SUVmean tumor (MTT tumors; animal 6, 40‒60 min p.i.): 0.86
SUVmax ratio tumor / muscle (MTT tumors; animal 7, 40‒60 min p.i.): 6.06
SUVmax tumor (MTT tumors; animal 7, 40‒60 min p.i.): 2.23
SUVmean ratio tumor / muscle (MTT tumors; animal 7, 40‒60 min p.i.): 9.95
SUVmean tumor (MTT tumors; animal 7, 40‒60 min p.i.): 1.06
SUVmax ratio tumor / muscle (MTT tumors; as SUVmean, mean ± SEM): 6.30 ± 0.94
SUVmean ratio tumor / muscle (MTT tumors; [6]): 8.60 ± 1.04
SUVmax tumor (MTT tumors; [7]): 1.55 ± 0.17
percentage of MTT responders (SUV) (MTT tumors): 29%
time for serum levels to normalize (VPA) [3]: eight
SSTR2 stimulation (effect) (SSTR2 [4]): stimulate SSTR2
